{"source": "patent US20260275280A1", "about": "“DIRECTED DIFFERENTIATION PROTOCOLS TO DERIVE BONE FIDE SPINAL SENSORY INTERNEURONS” (THE REGENTS OF THE UNIVERSITY OF CALIFORNIA, priority 2022, published 2026)", "key": {"[1]": {"tested_on": "mESCs-derived NMPs", "assay": "2D directed differentiation of NMPs with RA/BMP4, immunohistochemistry (pSmad1/5/8, Pax3, Pax6, Sox2, Tuj1, Pax2)", "format": "cell-based, mouse", "settings": "24 hr pulse of RA at day 3", "method": "The mouse ESC line, MM13, was routinely maintained in ES cell media (DMEM+20% FBS) with 100u/ml of mouse leukocyte inducing factor (LIF). […] To prepare cells for the differentiation, ESC colonies were dissociated with 0.25% trypsin and plated on gelatin coated plates at 1:10 dilution to reduce MEF transfer. Cells cultured on gelatin coated plates and allowed to proliferate for 1-2 days. To initiate differentiation, cells were plated on 0.1% gelatin coated 24-well CellBIND dishes (Corning) at 20,000 cells/ml density in 0.5 ml/well N2/B27 medium that contains 10 ng/ml basic fibroblast growth factor (bFGF). The N2/B27 medium contains 1:1 portions of Advanced Dulbecco's modified Eagle Media (DMEM) F12 (Hyclone) and Neurobasal media (Thermo Fisher Scientific) supplemented with 0.5×N2, 1×B27 supplement (with Vitamin A), 2 mM L-glutamine, 0.1 mM 2-mercaptoethanol (ME), and 1% BSA. On day 1, small colonies of cells can be observed attached to the bottom of the wells. On day 2, cells were supplemented with 10 ng/ml bFGF and 5 μM CHIR99021 for 24 hours to induce a neuromesodermal identity (Gouti et al., 2014). On day 3, media was changed as follows: for protocol 1, cells were exposed to 100 nM RA for 48 hrs. […] At the end of the differentiation, the cultures were fixed for immunohistochemical analysis or lysed to obtain RNA for RNA-Seq or quantitative reverse transcriptase PCR analysis. […]"}, "[2]": {"tested_on": "mESC-derived neurons", "assay": "Single-cell RNA sequencing of day 9 cultures, assignment of dI identities", "format": "cell-based, mouse", "settings": "scRNA-Seq", "method": "Preparation of single cell suspension: Day 9 cultures from both protocol1 (RA) and protocol3 (RA+BMP4) were dissociated with 0.25% cold trypsin for 5 mins. Trypsin activity was stopped with the addition of trypsin inhibitor (Sigma-Aldrich) in 1:1 ratio. Cells were then pelleted by centrifugation at 1000RPM and resuspended in 1× PBS. The ratio of viable cells was determined using Trypan blue staining. Dead cells were removed using MACS dead cell removal kit (Miltenyi Biotec Inc.) by following the manufacturer's protocol. Eluted live cells were then suspended in 1× PBS containing 0.04% BSA solution (400 μg/ml) for the library preparation.\nLibrary preparation, and sequencing: ~10,000 live cells/conditions were used to construct single-cell specific cDNA libraries using protocol described in 10× Genomics chromium single cell 3′ reagent kit (v3.1 Chemistry). Briefly, cells were partitioned into nanoliter-scale Gel-Beads-in-emulsion (GEM) using the 10× Chromium controller. Each GEM contains a unique barcode which is shared among the cDNA generated from a single cell. Cells were then lysed, and cDNA synthesis and feature barcoding were performed in the GEMs. The sequencing libraries were recovered using Magnetic separation and the quantity and quality of cDNA were assessed by Agilent 2100 expert High Sensitivity DNA Assay. cDNA samples were sequenced on 1 lane of NovaSeq 6000 S2 flow cell and reads were mapped to mouse mm10 genome using Cell Ranger v.3.0.2 to generate fasq files.\nFiltering genes and cells: Seurat package v3.1.1 was used for the analysis. For each condition, genes expressing in less than 3 cells were removed and cells with >250 features were retained. PCA was used for dimension reduction (npcs=50) with top 3000 most variable genes. Raw count data were normalized using regularized negative binomial regression with SCT transformation. Cell clustering is done using Shared Nearest Neighbor (SNN) Graph method and cluster specific markers were identified by Wilcox Rank Sum test.\nEach cell cluster was annotated by a combination of the following methods 1) the expression of known canonical cell-type markers 2) Gene Set Enrichment Analysis (GSEA) of cluster specific markers determined by FindMarkers function in Seurat.\nReclustering of neuronal clusters: From the entire single-cell dataset, neuronal cells were first identified by the expression of pan-neuronal markers-Tubb3 and Elavl1/2. Roughly 30% cells express these markers in both protocol 1 and protocol 3 and were thus annotated as the mature neurons. The neuronal populations were then extracted using the Seurat package in R, by clustering the cells expressing Tubb3 >2 (median normalized log expression levels) using the Shared Nearest Neighbor (SNN) Graph method. […] Clusters were visualized with Uniform Manifold Approximation Projection (UMAP) method and the unique cluster-specific markers were identified using FindMarker function in Seurat.\nTo assess whether protocols 1 and 3 direct distinct classes of dIs, we obtained single-cell transcriptomes from 9,704 cells using protocol 1 and 13,121 cells using protocol 3, taken at day 9 of the differentiation procedure (FIG. 2A). We performed Louvain clustering followed by Uniform Manifold Approximation and Projection (UMAP) plots, to visualize groups of transcriptionally distinct cell types (Becht et al., 2018). This pipeline identified 21 dusters of cells in both protocol 1 (FIG. 2C) and protocol 3 (FIG. 2D). In both conditions, ~30% of cells identify as being stressed; they cluster separately and display <2000 RNA counts (FIGS. 2C, 2D, 9A, 9B). ~2-4% cells are pluripotent stem cells, marked by Sox2, Pou5f1 (Oct4) and Nanog expression, while 5-8% cells are non-neural, either of mesodermal or cardiac neural crest identity, expressing Twist1, Runx2, and Hand2 (Han et al., 2021; Soldatov et al., 2019; Vincentz et al., 2013) (FIGS. 2C, 2D, 9A, 9B). […]"}}, "note": "Values joined by “and” are separate entries in the source; they are usually repeats but may differ in a detail not shown here. Equal values may be shown once."}
{"smiles": "CC1=C(/C=C/C(C)=C/C=C/C(C)=C/C(=O)O)C(C)(C)CCC1", "note": "[RA, retinoic acid]", "values": [{"measurement": "Pax3+ cells by day 4", "setting": "[1]", "value": "90-95%"}, {"measurement": "Tubb3+ (Tuj1+) neurons of unknown neural identity (no dI specific markers)", "setting": "[2]", "value": "8.5% and ~ 8.5%"}, {"measurement": "Tubb3+ (Tuj1+) neurons that are dI1", "setting": "[2]", "value": "5% and 5.2%"}, {"measurement": "Tubb3+ (Tuj1+) neurons that are dI2", "setting": "[2]", "value": 5, "unit": "%"}, {"measurement": "Tubb3+ (Tuj1+) neurons that are dI4", "setting": "[2]", "value": "~ 33% and 33%"}, {"measurement": "Tubb3+ (Tuj1+) neurons that are dI5", "setting": "[2]", "value": "40.5% and 40.6%"}, {"measurement": "Tubb3+ (Tuj1+) neurons that are dI6", "setting": "[2]", "value": "8% and 7.6%"}]}
